pIC50: −log10 of the molar value. Read-outs that look alike come from different tables or passages of the source. Residues, ends and D or L forms follow the SMILES beside them.
Columns and labels:
[1] = system: acetic acid-induced writhing response in mice; type: in vivo, mouse (Kunming); conditions: counted 30 min after 0.8% acetic acid i.p., control 61, n = 6
[2] = biological target: T1, rNav1.3 (Rattus norvegicus, UniProt P08104); assay: Whole-cell patch clamp, Nav1.3 in HEK293 cells; type: cell-based; conditions: −10 mV from −80 mV holding
T1 construct: expressed in transfected cells; host or cells: HEK293 (HEK293T) cells, transient
Source text: Nine sodium channel subtypes have been identified and classified as TTX-S (Nav1.1–Nav1.4, Nav1.6, and Nav1.7) or TTX-R types (Nav1.5, Nav1.8, and Nav1.9). […] However, the subtype selectivity of JZTX-34 on the subtype of sodium channel is still unknown. In this work, effects of JZTX-34 on VGSC subtypes (Nav1.1–Nav1.8) were examined. Nav1.1–Nav1.7 were transfected into HEK293 cells and Nav1.8 currents were expressed in ND cells. Inward sodium currents were elicited by a 50 ms depolarizing potential to −10 mV from a holding potential of −80 mV every 5 s. […] No effects on other sodium channel subtypes were found (Nav1.1, Nav1.2, Nav1.4–Nav1.6, and Nav1.8) (Figure S2).
Figure 2 Selectivity of JZTX-34 on sodium channel subtypes. […]
The HEK293T cells were maintained in standard culture conditions (5% CO2 and 37 °C). […] After culturing for 36–72 h, cells with obvious green fluorescence were selected for sodium currents recordings the internal solution for sodium currents recording that contained (in mM) 140 CsF, 5 NaCl, 10 HEPES, 3 Na2-ATP, and 10 EGTA. […]
Sodium currents were recorded from DRG, HEK293, and ND cells by the whole-cell patch-clamp technique at 25 °C. […] Experiments date were acquired from whole-cell Axon 700B patch clamp amplifier (Molecular Devices, Sunnyvale, CA, USA) and analyzed by the program Clampfit10.0 (Molecular Devices, Sunnyvale, CA, USA) and Sigmaplot. […]

T1 sequence (Q07699 19-218): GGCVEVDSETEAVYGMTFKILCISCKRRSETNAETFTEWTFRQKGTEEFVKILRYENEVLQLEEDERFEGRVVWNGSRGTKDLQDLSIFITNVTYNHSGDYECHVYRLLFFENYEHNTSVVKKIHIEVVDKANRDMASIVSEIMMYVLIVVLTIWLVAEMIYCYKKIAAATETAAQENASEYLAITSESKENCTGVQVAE
T1 sequence (P08104 whole entry): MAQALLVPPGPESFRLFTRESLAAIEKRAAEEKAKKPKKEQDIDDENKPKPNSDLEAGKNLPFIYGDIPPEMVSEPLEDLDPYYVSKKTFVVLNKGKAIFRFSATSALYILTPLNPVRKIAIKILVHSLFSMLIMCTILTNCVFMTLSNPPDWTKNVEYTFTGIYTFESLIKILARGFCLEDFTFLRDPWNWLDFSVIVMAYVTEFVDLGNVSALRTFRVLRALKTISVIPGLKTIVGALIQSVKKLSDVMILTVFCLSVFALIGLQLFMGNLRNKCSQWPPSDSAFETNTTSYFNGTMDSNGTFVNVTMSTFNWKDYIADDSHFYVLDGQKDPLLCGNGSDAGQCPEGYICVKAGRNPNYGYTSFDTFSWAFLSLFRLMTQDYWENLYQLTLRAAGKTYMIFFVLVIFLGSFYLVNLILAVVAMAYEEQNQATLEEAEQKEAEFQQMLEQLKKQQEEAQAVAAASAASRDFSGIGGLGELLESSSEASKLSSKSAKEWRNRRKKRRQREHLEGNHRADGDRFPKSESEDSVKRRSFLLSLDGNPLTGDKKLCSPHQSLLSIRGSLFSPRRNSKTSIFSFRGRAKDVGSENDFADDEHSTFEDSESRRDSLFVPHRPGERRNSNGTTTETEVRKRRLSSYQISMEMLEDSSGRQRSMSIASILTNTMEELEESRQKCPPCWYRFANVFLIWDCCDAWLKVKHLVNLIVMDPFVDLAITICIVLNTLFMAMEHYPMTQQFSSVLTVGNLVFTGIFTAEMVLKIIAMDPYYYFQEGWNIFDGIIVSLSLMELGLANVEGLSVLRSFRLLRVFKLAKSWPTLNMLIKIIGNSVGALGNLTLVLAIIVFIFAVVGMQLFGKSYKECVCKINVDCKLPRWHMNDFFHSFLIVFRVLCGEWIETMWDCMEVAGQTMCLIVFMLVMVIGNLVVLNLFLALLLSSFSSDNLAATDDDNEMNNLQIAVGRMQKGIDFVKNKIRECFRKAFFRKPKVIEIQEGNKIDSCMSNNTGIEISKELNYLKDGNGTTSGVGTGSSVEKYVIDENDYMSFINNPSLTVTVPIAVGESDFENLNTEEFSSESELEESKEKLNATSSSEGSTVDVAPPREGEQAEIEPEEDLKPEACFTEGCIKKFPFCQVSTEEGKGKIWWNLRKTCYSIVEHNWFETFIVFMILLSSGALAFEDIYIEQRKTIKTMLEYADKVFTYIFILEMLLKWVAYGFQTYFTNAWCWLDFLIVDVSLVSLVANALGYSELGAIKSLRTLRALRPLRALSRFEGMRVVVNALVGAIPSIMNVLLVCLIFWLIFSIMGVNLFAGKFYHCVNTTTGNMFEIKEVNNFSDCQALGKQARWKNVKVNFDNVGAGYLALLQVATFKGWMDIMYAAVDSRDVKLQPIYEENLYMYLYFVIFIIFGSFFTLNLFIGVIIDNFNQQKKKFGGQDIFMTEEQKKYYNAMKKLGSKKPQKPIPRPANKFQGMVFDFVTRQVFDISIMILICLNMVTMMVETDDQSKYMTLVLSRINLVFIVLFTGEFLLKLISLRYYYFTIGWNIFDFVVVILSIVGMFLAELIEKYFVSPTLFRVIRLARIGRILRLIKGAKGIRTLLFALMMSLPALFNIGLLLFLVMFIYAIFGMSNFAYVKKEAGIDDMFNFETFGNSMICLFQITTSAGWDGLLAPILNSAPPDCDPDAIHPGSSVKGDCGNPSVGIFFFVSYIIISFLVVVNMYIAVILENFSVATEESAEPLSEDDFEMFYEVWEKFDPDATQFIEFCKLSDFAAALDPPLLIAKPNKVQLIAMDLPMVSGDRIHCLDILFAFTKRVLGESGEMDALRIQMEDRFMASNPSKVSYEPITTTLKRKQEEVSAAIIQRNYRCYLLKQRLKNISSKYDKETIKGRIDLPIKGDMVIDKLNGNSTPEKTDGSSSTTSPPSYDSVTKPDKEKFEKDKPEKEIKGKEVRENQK

Work on `CC(C)C[C@@H]1NC(=O)[C@H](Cc2c[nH]c3ccccc23)NC(=O)[C@H](CCC(=O)O)NC(=O)[C@H](CCCNC(=N)N)NC(=O)[C@@H](NC(=O)[C@H](C)N)CSSC[C@@H]2NC(=O)[C@@H]3CSSC[C@@H](C(=O)N[C@H](C(=O)N[C@@H](Cc4c[nH]c5ccccc45)C(=O)N[C@@H](CC(=O)O)C(=O)N[C@@H](Cc4c[nH]c5ccccc45)C(=O)N[C@H](C(=O)N[C@H](C(=O)O)C(C)C)[C@@H](C)O)C(C)C)NC(=O)[C@H](Cc4c[nH]cn4)NC(=O)[C@H](Cc4ccc(O)cc4)NC(=O)[C@@H]4CCCN4C(=O)[C@H](Cc4c[nH]c5ccccc45)NC(=O)[C@H](CCCCN)NC(=O)[C@H](CCCCN)NC(=O)[C@H](CCCNC(=N)N)NC(=O)[C@H](CSSC[C@H](NC(=O)CNC(=O)CNC1=O)C(=O)N[C@@H](CO)C(=O)N[C@@H](CCCCN)C(=O)N[C@@H](CC(=O)O)C(=O)N[C@@H](C)C(=O)N[C@@H](CC(=O)O)C(=O)N3)NC(=O)[C@H](CCC(=O)O)NC(=O)[C@H](CC(C)C)NC(=O)[C@H](Cc1c[nH]cn1)NC(=O)[C@H](C)NC2=O` [JZTX-34, Jingzhaotoxin-34] (HELM PEPTIDE1{A.C.R.E.W.L.G.G.C.S.K.D.A.D.C.C.A.H.L.E.C.R.K.K.W.P.Y.H.C.V.W.D.W.T.V}$PEPTIDE1,PEPTIDE1,2:R3-16:R3|PEPTIDE1,PEPTIDE1,9:R3-21:R3|PEPTIDE1,PEPTIDE1,15:R3-29:R3$$$V2.0; N-terminus and C-terminus assumed) yielded a number of writhing ([1]; 0.5 mg/kg i.p.) of 38, a number of writhing ([1]; 1 mg/kg i.p.) of 26 and a number of writhing ([1]; 2 mg/kg i.p.) of 11. The “reduction of Nav1.3 currents” value ([2]; 1 µM, mean ± S.E.) was 29.4 ± 4.6% and the pIC50 ([2]; Hill fit, n = 5) was 5.10.

From publication PMC5848165 (Toxins, 2018)
